{"source": "paper PMC5036131", "about": "“Fragment-based discovery of a new family of non-peptidic small-molecule cyclophilin inhibitors with potent antiviral activities” (Nature Communications, 2016)", "key": {"[1]": {"target": "T1, CypB (Homo sapiens, UniProt P23284)", "T1 construct": "hexahistidine tag (His-Tag) (C); made in house; host or cells: E. coli C41(DE3)", "T1 sequence (P23284 34-216)": "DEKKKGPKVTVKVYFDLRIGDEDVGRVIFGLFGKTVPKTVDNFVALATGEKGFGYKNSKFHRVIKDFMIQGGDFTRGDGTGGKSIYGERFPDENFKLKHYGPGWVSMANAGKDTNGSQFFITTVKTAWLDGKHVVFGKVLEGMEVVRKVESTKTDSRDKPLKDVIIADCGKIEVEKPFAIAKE", "assay": "biochemical", "type": "biochemical", "settings": "PPIase enzyme assay, 20 °C, mean±s.d.; read-out: CypB IC50", "experimental": "CypA and CypB proteins carrying a hexahistidine tag (His-Tag) at their carboxy terminus were expressed in E. coli and purified. Briefly, cultures of C41(DE3) cells were grown at 37 °C for 1 h until the culture reached an OD of 0.6 at 600 nm and then induced with 1 mM isopropyl-β-D-thiogalactopyranoside for 4 h at 37 °C (CypA) or overnight at 22 °C (CypB). Cell pellets were resuspended in a lysis buffer 20 mM NaH2PO4 pH 7.8, 300 mM NaCl, 7 mM β-mercaptoethanol, 1 mg ml^−1 lysozyme, 0.1 U μl^−1 desoxyribonuclease and complete protease inhibitor tablets (Roche Diagnostics Corporation, Indianapolis, Indiana). […] The bound protein was eluted in 1 ml fractions with a buffer composed of 20 mM NaH2PO4 pH 7.8, 300 mM NaCl, 250 mM imidazole, 7 mM β-mercaptoethanol and 10% glycerol, monitored by the Bradford colorimetric assay. The purity of each cyclophilin was determined by Coomassie-stained SDS–PAGE analysis."}, "[2]": {"test_system": "HCoV-229E", "assay": "Anti-human coronavirus 229E activity in MRC5 cells", "type": "cell-based", "settings": "72 h, viral cytopathic effect"}, "[3]": {"assay": "Kinetic solubility", "type": "physicochemical", "settings": "target concentration 100 μM, 24 h; for Solubility HCl (pH 1.0): 0.1 N HCl pH 1.0", "experimental": "The solutions were incubated at room temperature with shaking for 24 h and were then centrifuged, and the recovered supernatants assayed by HPLC with diode array ultraviolet/visible detection. Solubility values were calculated by comparing the amount (by chromatographic peak area) of compound detected in the defined test solution with an unextracted standard. Relative chemical stabilities of compounds after 24 h incubation in PBS at 37 °C were also determined. The solubility and chemical stability of a quality-control compound (amprenavir) were determined in parallel."}, "[4]": {"assay": "Chemical stability, 24 h", "type": "physicochemical", "settings": "37 °C, remaining"}, "[5]": {"test_system": "Caco-2 cells", "assay": "Caco-2 cell permeability", "type": "in vitro ADME", "settings": "Caco-2 monolayers, 10 μM", "experimental": "Permeability and efflux potential were determined using confluent (≥21 day) monolayers of Caco-2 cells grown on transwell filters. Compounds were added to donor wells at a target concentration of 10 μM and rates of appearance in receiver wells (containing 1% BSA to maintain sink conditions) were determined by liquid chromatography coupled to tandem mass spectrometry (LC-MS/MS)."}, "[6]": {"target": "T2, CYP1A2 (Homo sapiens, UniProt P05177)", "T2 sequence (P05177 1-516)": "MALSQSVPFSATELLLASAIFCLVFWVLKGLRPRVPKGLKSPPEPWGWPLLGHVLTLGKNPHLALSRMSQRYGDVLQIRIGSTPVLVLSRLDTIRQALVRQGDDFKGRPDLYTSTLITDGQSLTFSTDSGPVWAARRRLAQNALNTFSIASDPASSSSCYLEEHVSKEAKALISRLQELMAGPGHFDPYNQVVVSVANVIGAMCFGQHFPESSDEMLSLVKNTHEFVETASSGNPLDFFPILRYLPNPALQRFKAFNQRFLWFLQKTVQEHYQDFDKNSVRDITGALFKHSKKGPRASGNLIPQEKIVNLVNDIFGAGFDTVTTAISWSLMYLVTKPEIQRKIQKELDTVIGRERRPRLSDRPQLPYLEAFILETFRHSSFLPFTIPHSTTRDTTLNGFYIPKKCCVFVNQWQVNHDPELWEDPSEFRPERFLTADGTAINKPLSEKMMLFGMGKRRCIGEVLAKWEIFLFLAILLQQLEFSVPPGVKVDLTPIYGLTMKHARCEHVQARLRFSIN", "assay": "Metabolism by recombinant human cytochrome P450, CYP1A2", "type": "in vitro ADME", "settings": "recombinant enzyme", "experimental": "(§1) […] of compound was incubated with individual bacterially expressed recombinant human cytochromes P450 co-expressed with human NADPH cytochrome P450 reductase. […] Enzyme-selective positive control substrates were tested in parallel."}, "[7]": {"target": "CYP2C19 (Homo sapiens, UniProt P33261)", "sequence (P33261 whole entry)": "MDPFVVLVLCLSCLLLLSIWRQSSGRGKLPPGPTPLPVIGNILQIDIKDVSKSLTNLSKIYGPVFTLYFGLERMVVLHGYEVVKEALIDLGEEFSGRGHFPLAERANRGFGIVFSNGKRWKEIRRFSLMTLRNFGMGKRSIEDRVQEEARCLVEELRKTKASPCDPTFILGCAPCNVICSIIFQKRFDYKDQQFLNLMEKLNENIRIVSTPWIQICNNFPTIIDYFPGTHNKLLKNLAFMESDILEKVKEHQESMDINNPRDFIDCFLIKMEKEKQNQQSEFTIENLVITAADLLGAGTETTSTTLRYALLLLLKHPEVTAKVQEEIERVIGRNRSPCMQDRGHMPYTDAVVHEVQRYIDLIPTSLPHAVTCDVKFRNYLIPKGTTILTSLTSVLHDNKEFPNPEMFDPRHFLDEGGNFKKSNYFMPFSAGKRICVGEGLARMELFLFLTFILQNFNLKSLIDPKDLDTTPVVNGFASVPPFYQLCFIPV", "assay": "Metabolism by recombinant human cytochrome P450, CYP2C19", "type": "in vitro ADME", "settings": "recombinant enzyme", "experimental": "as §1"}, "[8]": {"target": "T3, CYP3A4 (Homo sapiens, UniProt P08684)", "T3 construct": "incubated with human hepatic microsomal fractions and NADPH; from tissue; host or cells: human hepatic microsomal fractions", "T3 sequence (P08684 2-503)": "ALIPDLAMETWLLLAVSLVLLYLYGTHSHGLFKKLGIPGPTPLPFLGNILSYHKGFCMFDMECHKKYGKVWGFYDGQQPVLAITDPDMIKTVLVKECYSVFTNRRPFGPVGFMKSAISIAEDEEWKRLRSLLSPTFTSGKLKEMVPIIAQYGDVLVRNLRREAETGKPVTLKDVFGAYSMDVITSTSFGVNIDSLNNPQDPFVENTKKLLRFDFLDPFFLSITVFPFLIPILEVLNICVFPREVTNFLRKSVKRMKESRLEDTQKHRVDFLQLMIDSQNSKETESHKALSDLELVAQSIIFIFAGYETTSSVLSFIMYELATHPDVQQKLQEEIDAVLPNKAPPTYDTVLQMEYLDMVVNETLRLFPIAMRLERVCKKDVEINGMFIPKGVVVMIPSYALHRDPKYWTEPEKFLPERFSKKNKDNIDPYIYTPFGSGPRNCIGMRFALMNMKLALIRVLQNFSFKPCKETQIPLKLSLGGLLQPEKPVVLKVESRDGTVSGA", "assay": "Cytochrome P450 enzyme inhibition assay, CYP3A4", "type": "in vitro ADME", "settings": "human hepatic microsomal fractions, up to 25 μM", "experimental": "(§2) Up to 25 μM of compounds 29 and 30 was incubated with human hepatic microsomal fractions and NADPH in the presence of individual probe substrates. All assays were designed so that conditions were linear with respect to time and protein concentration. Substrates were present at concentrations equal to or lower than their respective Km values. Enzyme selective products were determined by fluorometry (ethoxyresorufin O-deethylase) or by specific LC-MS/MS assays. Relative enzyme activities were determined by comparison with those assayed with DMSO vehicle instead of inhibitor. IC50 values were calculated by nonlinear curve fitting using a sigmoidal model. Positive control inhibitors for each enzyme were tested in parallel."}, "[9]": {"test_system": "MRC5 cells", "assay": "Cellular toxicity in MRC5 cells", "settings": "read-out: MRC5 cells CC50; MRC5 cells"}, "[10]": {"test_system": "Huh7 cells", "assay": "Cellular toxicity in Huh7 replicon cells", "settings": "read-out: HCV genotype 1b replicon CC50; Huh7 cells"}, "[11]": {"target": "T2, CYP1A2", "assay": "Cytochrome P450 enzyme inhibition assay, CYP1A2", "type": "in vitro ADME", "design": "incubated with human hepatic microsomal fractions and NADPH; from tissue; host or cells: human hepatic microsomal fractions", "settings": "human hepatic microsomal fractions, up to 25 μM", "experimental": "as §2"}}, "data": [{"smiles": "CSCCC(NC(=O)NCc1ccc(N)cc1)C(=O)N1CCCC1c1ccccc1SC.O=C(O)C(F)(F)F", "note": "(stereo not shown) [Compound 30]", "values": [{"measurement": "IC50", "setting": "[1]", "result": "1.9 ± 1.5", "unit": "µM"}, {"measurement": "EC50", "setting": "[2]", "result": "7.2 ± 1.8", "unit": "µM"}, {"measurement": "Solubility HCl (pH 1.0)", "setting": "[3]", "result": "> 100"}, {"measurement": "Solubility HCl (pH 1.0)", "setting": "[3]; listed as compound 30", "result": "very soluble"}, {"measurement": "Solubility PBS (pH 7.4)", "setting": "[3]", "result": "> 100"}, {"measurement": "Solubility PBS (pH 7.4)", "setting": "[3]; listed as compound 30", "result": "very soluble"}, {"measurement": "24-hour stability HCl (pH 1.0)", "setting": "[4]", "result": 92, "unit": "%"}, {"measurement": "24-hour stability PBS (pH 7.4)", "setting": "[4]", "result": 100, "unit": "%"}, {"measurement": "24-hour stability PBS (pH 7.4)", "setting": "[4]; listed as compound 30", "result": "not degraded"}, {"measurement": "Apparent permeability Forward", "setting": "[5]", "result": 19.5, "unit": "×10⁻⁶ cm/s"}, {"measurement": "Apparent permeability Forward", "setting": "[5]; listed as compound 30", "result": "high"}, {"measurement": "Apparent permeability Reverse", "setting": "[5]; reverse", "result": 39.7, "unit": "×10⁻⁶ cm/s"}, {"measurement": "Rate of metabolism by human cytochrome P450 CYP1A2", "setting": "[6]", "result": "< 0.12", "unit": "pmol/pmol P450/min"}, {"measurement": "Rate of metabolism by human cytochrome P450 CYP1A2", "setting": "[6]; listed as compound 30", "result": "Neither compound 29 nor compound 30 was metabolized"}, {"measurement": "Rate of metabolism by human cytochrome P450 CYP2C19", "setting": "[7]", "result": 6.21, "unit": "pmol/pmol P450/min"}, {"measurement": "Rate of metabolism by human cytochrome P450 CYP2C19", "setting": "[7]; listed as compound 30", "result": "metabolized at the highest rate"}, {"measurement": "IC50", "setting": "[8]", "result": 0.6, "unit": "µM"}, {"measurement": "Inhibition of cytochrome P450 activity, IC50 CYP3A4", "setting": "[8]", "result": "potent inhibitors"}, {"measurement": "CC50", "setting": "[9]", "result": "> 100", "unit": "µM"}, {"measurement": "CC50", "setting": "[10]", "result": "> 100", "unit": "µM"}, {"measurement": "IC50", "setting": "[11]", "result": "> 25", "unit": "µM"}, {"measurement": "Inhibition of cytochrome P450 activity, IC50 CYP1A2", "setting": "[11]", "result": "Neither compound 29 nor compound 30 significantly inhibited"}]}]}
